Assay [1] has as its target Receptor tyrosine-protein kinase erbB-2 (Homo sapiens, UniProt P04626). Kind of assay: Inhibition of HER2.
Assay [2] addresses Receptor tyrosine-protein kinase erbB-4 (Homo sapiens, UniProt Q15303). Nature of the assay: Inhibition of HER4.
Assay [3] concerns the target T1, Tyrosine-protein kinase JAK3 (Homo sapiens, UniProt P52333).
T1 sequence (P52333 whole entry): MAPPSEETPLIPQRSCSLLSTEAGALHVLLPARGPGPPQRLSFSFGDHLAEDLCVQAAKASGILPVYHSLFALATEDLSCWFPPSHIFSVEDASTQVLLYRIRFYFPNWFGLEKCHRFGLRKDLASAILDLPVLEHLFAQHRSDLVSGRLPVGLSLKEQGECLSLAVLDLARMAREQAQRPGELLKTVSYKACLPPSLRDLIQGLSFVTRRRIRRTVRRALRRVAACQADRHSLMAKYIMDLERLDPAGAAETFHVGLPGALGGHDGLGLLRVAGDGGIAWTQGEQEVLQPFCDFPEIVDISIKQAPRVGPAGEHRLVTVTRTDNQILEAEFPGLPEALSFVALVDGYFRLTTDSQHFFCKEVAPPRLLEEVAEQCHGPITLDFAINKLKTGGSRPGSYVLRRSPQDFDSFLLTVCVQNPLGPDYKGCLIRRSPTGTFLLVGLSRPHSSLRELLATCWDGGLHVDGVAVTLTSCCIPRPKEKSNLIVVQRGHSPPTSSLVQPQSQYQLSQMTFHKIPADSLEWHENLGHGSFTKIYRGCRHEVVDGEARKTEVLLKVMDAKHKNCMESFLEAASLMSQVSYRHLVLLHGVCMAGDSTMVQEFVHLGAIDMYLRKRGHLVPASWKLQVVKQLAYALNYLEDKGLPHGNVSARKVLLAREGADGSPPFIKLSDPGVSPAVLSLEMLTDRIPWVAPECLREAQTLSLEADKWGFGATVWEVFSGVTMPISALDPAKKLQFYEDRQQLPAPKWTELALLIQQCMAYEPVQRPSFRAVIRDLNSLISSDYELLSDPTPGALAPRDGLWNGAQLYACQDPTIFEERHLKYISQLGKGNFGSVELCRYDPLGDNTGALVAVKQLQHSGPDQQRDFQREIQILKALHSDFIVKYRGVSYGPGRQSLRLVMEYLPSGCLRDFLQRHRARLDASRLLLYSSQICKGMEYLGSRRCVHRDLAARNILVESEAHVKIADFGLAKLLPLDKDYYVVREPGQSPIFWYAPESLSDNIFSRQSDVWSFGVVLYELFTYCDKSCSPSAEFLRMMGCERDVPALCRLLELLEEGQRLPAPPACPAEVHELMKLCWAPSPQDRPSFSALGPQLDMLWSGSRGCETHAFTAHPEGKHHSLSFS
Kind of assay: Inhibition of JAK3.

The target in assay [4] is Tyrosine-protein kinase Blk (Homo sapiens, UniProt P51451). Kind of assay: Inhibition of Blk.
Assay [5] addresses T2, Serine/threonine-protein kinase STK11 (Homo sapiens, UniProt Q15831).
T2 sequence (Q15831 whole entry): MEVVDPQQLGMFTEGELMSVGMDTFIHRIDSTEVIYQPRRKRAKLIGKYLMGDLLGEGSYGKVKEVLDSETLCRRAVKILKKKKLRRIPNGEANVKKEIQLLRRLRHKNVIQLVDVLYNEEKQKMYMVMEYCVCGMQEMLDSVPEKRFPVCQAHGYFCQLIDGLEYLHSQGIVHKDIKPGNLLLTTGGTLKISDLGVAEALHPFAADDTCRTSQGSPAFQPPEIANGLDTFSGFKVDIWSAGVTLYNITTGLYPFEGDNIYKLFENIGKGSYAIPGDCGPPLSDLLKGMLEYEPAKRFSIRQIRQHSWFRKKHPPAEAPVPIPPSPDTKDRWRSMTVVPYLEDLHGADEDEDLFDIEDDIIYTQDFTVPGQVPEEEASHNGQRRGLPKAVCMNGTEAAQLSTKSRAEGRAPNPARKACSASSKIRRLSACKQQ
Kind of assay: Inhibition of Lkb1.

Assay [6] deals with Tyrosine-protein kinase BTK (Homo sapiens, UniProt Q06187). Kind of assay: Inhibition of Btk.
Assay [7] addresses T3, Tyrosine-protein kinase ITK/TSK (Homo sapiens, UniProt Q08881).
T3 sequence (Q08881 whole entry): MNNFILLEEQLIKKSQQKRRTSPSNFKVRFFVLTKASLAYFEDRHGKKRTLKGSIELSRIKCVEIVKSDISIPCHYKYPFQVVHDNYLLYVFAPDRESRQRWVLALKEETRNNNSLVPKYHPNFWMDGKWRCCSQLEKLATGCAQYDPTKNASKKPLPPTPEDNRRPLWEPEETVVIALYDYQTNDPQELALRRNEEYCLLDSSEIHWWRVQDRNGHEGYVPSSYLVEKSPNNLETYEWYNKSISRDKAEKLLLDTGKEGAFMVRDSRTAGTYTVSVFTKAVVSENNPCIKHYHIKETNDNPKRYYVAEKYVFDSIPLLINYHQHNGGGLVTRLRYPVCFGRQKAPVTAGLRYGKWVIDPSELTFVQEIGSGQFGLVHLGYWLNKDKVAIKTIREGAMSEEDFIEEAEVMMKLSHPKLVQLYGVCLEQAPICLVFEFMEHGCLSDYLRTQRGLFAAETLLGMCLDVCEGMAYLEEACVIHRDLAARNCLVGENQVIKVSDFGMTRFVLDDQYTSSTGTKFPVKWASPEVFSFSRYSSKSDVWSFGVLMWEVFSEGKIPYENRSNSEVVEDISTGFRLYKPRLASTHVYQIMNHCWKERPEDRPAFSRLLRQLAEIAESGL
Nature of the assay: Inhibition of Itk.

Our source for the IC50 values is ChEMBL document CHEMBL1154498, “Clinical stage EGFR inhibitors irreversibly alkylate Bmx kinase” (Bioorg Med Chem Lett, 2008).

SMILES strings stand for the structures.

For orientation: IC50 means the concentration that gives 50% inhibition. A lower IC50 goes with greater potency.

Tyrosine-protein kinase BTK, sequence (Q06187 whole entry): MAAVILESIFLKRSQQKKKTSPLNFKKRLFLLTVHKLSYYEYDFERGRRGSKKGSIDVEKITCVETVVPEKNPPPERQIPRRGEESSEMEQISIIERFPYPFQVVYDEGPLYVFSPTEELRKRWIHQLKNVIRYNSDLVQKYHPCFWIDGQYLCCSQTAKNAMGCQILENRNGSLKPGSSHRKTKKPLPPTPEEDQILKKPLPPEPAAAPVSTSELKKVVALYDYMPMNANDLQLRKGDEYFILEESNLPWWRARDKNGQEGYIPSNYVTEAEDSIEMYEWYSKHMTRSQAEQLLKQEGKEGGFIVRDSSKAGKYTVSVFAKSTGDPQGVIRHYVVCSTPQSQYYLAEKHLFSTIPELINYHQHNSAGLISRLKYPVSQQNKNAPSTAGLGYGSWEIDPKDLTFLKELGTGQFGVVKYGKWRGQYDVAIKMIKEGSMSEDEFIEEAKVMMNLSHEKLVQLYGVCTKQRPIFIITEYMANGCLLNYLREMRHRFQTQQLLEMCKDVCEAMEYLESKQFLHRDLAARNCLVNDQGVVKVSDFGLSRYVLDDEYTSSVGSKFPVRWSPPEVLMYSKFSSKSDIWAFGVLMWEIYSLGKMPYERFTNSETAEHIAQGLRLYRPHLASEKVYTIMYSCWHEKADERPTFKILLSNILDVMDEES
Receptor tyrosine-protein kinase erbB-2, sequence (P04626 whole entry): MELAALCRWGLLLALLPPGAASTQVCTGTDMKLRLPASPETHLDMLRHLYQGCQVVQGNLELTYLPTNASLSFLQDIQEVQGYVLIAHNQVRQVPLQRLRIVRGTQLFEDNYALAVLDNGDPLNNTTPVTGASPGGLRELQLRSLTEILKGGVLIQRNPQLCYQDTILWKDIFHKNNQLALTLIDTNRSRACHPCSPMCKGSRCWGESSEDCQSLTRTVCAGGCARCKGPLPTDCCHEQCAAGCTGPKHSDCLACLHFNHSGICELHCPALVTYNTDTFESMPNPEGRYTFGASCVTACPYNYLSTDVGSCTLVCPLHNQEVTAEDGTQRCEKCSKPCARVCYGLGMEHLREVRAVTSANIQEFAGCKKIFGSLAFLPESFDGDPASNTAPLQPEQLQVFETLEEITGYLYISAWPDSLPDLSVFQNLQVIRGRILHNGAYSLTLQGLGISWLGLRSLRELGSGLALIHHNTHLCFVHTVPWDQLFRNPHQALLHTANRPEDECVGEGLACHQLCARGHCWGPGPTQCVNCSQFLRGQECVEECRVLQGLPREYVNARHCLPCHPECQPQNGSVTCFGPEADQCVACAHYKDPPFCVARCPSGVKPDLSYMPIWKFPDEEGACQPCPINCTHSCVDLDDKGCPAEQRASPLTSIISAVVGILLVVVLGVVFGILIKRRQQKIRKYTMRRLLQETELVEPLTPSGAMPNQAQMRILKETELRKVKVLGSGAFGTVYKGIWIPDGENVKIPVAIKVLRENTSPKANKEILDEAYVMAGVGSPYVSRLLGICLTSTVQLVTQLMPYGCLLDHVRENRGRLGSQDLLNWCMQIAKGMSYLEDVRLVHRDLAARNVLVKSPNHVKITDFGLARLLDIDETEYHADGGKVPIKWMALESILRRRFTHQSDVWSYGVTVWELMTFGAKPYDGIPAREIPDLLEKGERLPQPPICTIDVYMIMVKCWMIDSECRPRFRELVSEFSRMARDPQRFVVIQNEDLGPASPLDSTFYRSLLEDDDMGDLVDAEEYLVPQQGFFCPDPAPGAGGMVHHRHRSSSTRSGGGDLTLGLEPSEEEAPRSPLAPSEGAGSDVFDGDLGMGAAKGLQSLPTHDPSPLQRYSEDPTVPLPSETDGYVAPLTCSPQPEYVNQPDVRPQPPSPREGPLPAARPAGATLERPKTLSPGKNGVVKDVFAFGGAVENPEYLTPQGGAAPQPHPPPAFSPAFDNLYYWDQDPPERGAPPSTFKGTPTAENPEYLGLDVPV
Receptor tyrosine-protein kinase erbB-4, sequence (Q15303 whole entry): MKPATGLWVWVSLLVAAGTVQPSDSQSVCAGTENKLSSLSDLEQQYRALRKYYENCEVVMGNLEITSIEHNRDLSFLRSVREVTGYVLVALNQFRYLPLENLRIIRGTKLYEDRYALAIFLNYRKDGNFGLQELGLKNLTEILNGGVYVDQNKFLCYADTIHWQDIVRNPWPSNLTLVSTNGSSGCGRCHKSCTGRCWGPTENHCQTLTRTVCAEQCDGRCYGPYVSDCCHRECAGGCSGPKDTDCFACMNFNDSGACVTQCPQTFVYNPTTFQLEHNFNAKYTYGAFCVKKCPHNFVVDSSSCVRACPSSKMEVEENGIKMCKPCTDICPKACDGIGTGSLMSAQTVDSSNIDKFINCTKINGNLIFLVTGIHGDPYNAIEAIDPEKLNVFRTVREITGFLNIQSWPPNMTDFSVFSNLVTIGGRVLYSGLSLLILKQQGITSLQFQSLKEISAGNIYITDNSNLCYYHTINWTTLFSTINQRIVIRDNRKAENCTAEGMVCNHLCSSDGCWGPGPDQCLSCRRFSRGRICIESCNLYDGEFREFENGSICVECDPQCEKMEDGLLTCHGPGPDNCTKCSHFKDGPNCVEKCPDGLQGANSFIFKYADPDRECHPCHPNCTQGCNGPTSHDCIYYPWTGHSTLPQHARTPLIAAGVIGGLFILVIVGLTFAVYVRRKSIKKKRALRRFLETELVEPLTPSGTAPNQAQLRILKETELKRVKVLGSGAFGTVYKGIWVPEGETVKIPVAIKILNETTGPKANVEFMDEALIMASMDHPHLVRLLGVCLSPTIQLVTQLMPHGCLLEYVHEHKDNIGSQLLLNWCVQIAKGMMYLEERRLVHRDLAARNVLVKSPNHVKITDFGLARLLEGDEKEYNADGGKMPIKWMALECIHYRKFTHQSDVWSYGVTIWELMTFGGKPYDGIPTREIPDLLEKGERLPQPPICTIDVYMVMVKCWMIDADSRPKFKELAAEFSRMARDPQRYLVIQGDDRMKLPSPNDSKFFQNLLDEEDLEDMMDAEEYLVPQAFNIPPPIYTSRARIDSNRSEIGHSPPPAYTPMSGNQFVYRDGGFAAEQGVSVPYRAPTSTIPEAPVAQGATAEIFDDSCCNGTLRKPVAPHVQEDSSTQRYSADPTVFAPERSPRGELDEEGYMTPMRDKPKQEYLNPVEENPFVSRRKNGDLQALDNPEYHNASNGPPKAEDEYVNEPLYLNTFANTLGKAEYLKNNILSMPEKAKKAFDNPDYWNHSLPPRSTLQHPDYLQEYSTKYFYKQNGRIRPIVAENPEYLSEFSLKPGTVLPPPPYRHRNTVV
Tyrosine-protein kinase Blk, sequence (P51451 whole entry): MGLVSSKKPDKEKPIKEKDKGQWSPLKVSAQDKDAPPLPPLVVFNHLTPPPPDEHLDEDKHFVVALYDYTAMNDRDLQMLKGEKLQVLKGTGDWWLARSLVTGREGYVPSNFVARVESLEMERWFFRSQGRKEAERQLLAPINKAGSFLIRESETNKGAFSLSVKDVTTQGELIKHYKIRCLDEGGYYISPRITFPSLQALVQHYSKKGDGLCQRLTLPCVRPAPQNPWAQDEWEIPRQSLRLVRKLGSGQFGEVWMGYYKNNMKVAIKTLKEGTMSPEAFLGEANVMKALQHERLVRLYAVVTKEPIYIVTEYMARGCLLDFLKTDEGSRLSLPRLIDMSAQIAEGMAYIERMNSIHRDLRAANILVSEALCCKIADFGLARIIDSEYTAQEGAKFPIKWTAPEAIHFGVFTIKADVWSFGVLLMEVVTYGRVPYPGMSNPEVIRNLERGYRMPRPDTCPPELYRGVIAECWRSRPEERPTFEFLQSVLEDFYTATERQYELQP

Regarding `C=CC(=O)Nc1ccc2ncnc(Nc3cccc(Br)c3)c2c1`, the half-maximal inhibitory concentration (IC50) in assay [1] was 0.024 µM; in assay [2], 0.012 µM; in assay [3], 3.14 µM; in assay [4], 5.47 µM; in assay [5], greater than 10 µM; in assay [6] it was 5.83 µM. Besides, the IC50 in assay [7] was greater than 30 µM.

With `C=CC(=O)Nc1cc2c(Nc3ccc(F)c(Cl)c3)ncnc2cc1OCCCN1CCOCC1` [CANERTINIB], the 50% inhibitory concentration (IC50) in assay [6] amounted to 0.185 µM.
